Consider two compounds from paper PMC2664976 (The Journal of General Physiology, 2009).

In one test the target is T1, SLC26A9 (Homo sapiens, UniProt Q7LBE3).
T1 sequence (Q7LBE3 1-791): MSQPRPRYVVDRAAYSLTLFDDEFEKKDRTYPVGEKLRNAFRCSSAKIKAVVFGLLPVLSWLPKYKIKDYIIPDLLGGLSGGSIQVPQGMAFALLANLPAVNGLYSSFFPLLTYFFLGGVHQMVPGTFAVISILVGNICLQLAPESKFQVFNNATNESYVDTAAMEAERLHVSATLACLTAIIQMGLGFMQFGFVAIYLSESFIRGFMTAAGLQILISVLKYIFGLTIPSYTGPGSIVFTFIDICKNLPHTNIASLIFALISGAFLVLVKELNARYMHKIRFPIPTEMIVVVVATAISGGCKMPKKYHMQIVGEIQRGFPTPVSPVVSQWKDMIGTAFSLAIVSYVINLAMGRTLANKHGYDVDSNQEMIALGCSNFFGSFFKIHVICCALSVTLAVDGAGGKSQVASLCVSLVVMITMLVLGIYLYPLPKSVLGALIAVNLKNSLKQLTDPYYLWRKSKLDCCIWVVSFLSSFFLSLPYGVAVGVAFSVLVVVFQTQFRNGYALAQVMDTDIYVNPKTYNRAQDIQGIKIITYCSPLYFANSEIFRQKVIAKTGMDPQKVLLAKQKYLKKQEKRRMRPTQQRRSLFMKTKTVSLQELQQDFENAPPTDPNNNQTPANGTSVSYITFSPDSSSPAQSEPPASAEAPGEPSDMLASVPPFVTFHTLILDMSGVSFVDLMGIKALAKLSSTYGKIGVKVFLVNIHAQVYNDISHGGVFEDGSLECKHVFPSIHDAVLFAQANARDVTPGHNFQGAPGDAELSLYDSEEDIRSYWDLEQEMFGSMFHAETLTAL
Nature of the test: whole cell patch clamp, HEK […] chloride current. It is filed as cell-based. As to conditions: read-out: % inhibition at 50 μM.

For a further test, the target named is wtCFTR (Homo sapiens, UniProt P13569). Nature of the test: whole cell patch clamp, HEK […] chloride current. It is filed as cell-based.
Sequence of wtCFTR (P13569 whole entry): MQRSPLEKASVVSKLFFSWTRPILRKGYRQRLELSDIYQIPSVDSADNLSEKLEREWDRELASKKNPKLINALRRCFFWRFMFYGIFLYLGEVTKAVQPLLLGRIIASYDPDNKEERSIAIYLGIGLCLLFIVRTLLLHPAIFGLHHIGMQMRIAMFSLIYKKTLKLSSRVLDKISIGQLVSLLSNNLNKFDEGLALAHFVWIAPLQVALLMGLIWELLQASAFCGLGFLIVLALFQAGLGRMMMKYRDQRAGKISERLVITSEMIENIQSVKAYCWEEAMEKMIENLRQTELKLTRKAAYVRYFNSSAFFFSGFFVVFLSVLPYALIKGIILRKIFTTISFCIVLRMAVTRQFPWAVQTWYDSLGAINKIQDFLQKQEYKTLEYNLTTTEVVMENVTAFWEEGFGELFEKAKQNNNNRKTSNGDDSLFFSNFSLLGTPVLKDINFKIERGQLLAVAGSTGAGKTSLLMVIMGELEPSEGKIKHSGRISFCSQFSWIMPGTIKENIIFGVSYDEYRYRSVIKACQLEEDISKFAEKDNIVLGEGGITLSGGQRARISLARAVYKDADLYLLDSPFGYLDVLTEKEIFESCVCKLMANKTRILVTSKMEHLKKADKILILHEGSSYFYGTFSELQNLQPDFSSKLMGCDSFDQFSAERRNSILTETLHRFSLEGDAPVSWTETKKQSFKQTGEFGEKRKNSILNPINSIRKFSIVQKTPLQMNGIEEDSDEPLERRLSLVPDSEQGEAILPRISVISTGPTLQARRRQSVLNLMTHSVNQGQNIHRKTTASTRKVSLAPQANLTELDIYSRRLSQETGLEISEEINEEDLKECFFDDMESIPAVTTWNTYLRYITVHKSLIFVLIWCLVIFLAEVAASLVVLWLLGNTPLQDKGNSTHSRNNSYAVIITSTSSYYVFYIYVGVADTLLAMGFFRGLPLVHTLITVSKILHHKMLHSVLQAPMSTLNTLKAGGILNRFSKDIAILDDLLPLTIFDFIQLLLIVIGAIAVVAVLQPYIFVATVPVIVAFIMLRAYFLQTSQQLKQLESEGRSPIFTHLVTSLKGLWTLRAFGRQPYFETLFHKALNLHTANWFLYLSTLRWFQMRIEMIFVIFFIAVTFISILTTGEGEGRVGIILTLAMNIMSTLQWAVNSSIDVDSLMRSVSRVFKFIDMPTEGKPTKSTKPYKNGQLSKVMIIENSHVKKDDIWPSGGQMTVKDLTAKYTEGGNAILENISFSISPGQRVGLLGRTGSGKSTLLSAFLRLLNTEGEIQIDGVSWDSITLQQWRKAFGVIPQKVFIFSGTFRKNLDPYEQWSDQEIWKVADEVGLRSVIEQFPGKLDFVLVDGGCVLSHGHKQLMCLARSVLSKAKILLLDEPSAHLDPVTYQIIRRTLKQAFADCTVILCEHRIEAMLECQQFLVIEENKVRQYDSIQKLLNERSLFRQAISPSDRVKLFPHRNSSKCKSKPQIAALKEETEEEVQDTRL

Turning to `O=C(CNc1ccc2ccccc2c1)NN=Cc1cc(Br)c(O)c(Br)c1O` [GlyH-101], the inhibition at 50 µM at SLC26A9 came out at 71 ± 4%; on wtCFTR (read-out: % inhibition (GlyH-101, 50 μM)), 90 ± 2%.

As to `COc1ccc(Cl)cc1C(=O)NCCc1ccc(S(=O)(=O)NC(=O)NC2CCCCC2)cc1` [glibenclamide], the inhibition at 100 µM on wtCFTR (read-out: % inhibition (glibenclamide, 100 μM)) turned out to be 52 ± 10%.
